# Measured values from patent US20230112418A1, “COMPOUND AND RADIOACTIVE LABELING COMPOUND” (NIHON MEDI-PHYSICS CO., LTD., priority 2020, published 2023).
# Tests used:
# [1] = system: LNCaP cells (PSMA positive); test: Evaluation of binding using cultured cells (LNCaP); format: cell-based, human; conditions: FIG. 4
# Description: LNCaP cells (PSMA positive, human prostate cancer) and PC-3 cells (PSMA negative, human prostate cancer) were used. These cells were purchased from American Type Culture Collection and DS Biomedical, respectively. The LNCaP cells and the PC-3 cells were each cultured in RPMI 1640 containing antibiotics (penicillin and streptomycin) and 10% inactivated fetal bovine serum, manufactured by Nacalai Tesque, Inc. at 37° C. under 5% CO2.
# The LNCaP cells and the PC-3 cells were each seeded in a 12 well plate at 4.0×10^5 cells/well, and allowed to stand at 37° C. under 5% CO2 for 48 hours.
# The culture medium was removed, and an assay medium (0.5% FBS-containing RPMI 1640 medium) solution (1 mL) containing [^111In]In-PSMA-DA1 or [^111In]In-PSMA-DB (37 kBq) was added to the residue. Thereafter, the plate was allowed to stand at 37° C. under 5% CO2 for one hour. […]
# The radioactivity of each of the assay medium and the cell lysate was measured with a gamma counter. Separately from this, the total protein concentration in the cell lysate was calculated using a BCA Protein Assay Kit manufactured by Thermo Fisher Scientific. A value (% ID/mg protein) obtained by dividing the percentage (% ID) of the amount of radioactivity of a sample to the amount of added radioactivity by the total protein mass was calculated for each sample.
# Data was expressed as mean±standard deviation. […]
# [2] = target: human serum albumin (HSA) (Homo sapiens, UniProt P02768); test: Evaluation of binding to albumin (spin column), HSA solution and PBS; conditions: FIG. 5
# Description: Thereafter, the reaction liquid was added to a spin column (Sephadex G-100 manufactured by Cytiva), and centrifuged at 1500×g at 4° C. for two minutes. After the separation, the radioactivity of each of the column and the eluate was measured with a gamma counter.
# Data was expressed as mean±standard deviation. A significant difference test was performed using Student's t-test, and a result of p<0.05 was defined to have a significant difference.
# The higher a value, the higher binding property to albumin.
# Thereafter, the reaction liquid was added to a spin column (Sephadex G-100 manufactured by Cytiva), and centrifuged at 1500×g at 4° C. for two minutes. After the centrifugation, the radioactivity of each of the column and the eluate was measured with a gamma counter.
# [3] = system: LNCaP tumor transplanted mice; test: In vivo radioactivity distribution using LNCaP tumor transplanted mice
# Description: Animal experiments were performed in accordance with the guidelines of Kyoto University Animal Experiment Committee. Male CB17/IcrJcl-Prkdc^scid mice were purchased from CLEA Japan, Inc. The animals were raised under 12 h/12 h day/night cycle conditions and freely fed with food and water. LNCaP cells (1.0×10^7 cells/mouse) or PC-3 cells (1.0×10^7 cells/mouse) were suspended in a mixed liquid (1:1,150 μL) of PBS and Matrigel manufactured by Corning Life Sciences Inc., and the suspension was subcutaneously transplanted to the right shoulder of each of the mice under isoflurane anesthesia. Thereafter, the mice were raised for 40 to 60 days.
# A saline solution (185 kBq, 100 μL) of [^111In]In-PSMA-DA1 or [^111In]In-PSMA-DB was injected into each of LNCaP or PC-3 tumor transplanted mice via the tail vein thereof (n=3 in each group). The mice were euthanized 1, 4, 24, 48, 96, and 192 hours after the injection. Thereafter, blood and organs were collected, and the mass and radioactivity of each of the organs were measured.
# A result thereof is indicated as a value (% ID/g) obtained by dividing the percentage (% ID) of the amount of radioactivity with respect to the amount of injected radioactivity (injected dose) by the mass of blood or the mass of an organ (g). […]
# Chain of human serum albumin (HSA) (P02768 25-609): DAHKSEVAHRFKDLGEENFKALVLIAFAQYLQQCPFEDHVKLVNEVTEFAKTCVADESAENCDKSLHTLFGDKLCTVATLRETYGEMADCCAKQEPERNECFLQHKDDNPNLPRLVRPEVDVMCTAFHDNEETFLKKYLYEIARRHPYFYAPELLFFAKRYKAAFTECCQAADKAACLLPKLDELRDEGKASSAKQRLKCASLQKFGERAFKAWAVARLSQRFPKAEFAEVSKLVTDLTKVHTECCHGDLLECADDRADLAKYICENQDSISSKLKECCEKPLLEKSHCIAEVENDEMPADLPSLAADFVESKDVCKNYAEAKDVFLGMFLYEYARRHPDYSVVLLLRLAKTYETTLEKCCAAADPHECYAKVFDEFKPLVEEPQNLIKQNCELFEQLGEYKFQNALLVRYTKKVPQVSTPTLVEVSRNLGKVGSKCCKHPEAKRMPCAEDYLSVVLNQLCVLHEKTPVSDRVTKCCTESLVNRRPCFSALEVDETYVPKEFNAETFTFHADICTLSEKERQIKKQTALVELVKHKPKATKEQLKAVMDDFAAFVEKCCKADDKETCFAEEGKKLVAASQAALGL
smiles,measurement,setting,value
O=C([O-])CN1CCN(C(CCC(=O)NCCCC[C@H](NC(=O)N[C@@H](CCC(=O)O)C(=O)O)C(=O)O)C(=O)[O-])CCN(CC(=O)[O-])CCN(C(CCC(=O)Nc2ccccc2)C(=O)[O-])CC1.[111In+3] (some centres unmarked) [[^111In]In-PSMA-DB],Effect of excess 2-PMPA on binding (in words),[1]; 2-PMPA 100 μM,significantly reduced
same,Binding property LNCaP vs PC-3 cells (in words),[1],higher binding property to the LNCaP cells than the PC-3 cells
same,"Radioactivity in the eluate, PBS (in words)",[2],no significant radioactivity was observed in the eluate
same,Accumulation: Blood,[3]; 1 hour after injection,3.33 ± 0.21 % ID/g
same,Accumulation: Brain,[3]; 1 hour after injection,0.06 ± 0.01 % ID/g
same,Accumulation: Heart,[3]; 1 hour after injection,0.87 ± 0.33 % ID/g
same,Accumulation: Intestinal,[3]; 1 hour after injection,0.59 ± 0.14 % ID/g
same,Accumulation: Kidney,[3]; 1 hour after injection,59.2 ± 35.2 % ID/g
same,Accumulation: LNCaP tumor,[3]; 1 hour after injection,3.36 ± 0.04 % ID/g
same,Accumulation: Liver,[3]; 1 hour after injection,0.91 ± 0.20 % ID/g
same,Accumulation: Lung,[3]; 1 hour after injection,2.24 ± 0.60 % ID/g
same,Accumulation: Muscle,[3]; 1 hour after injection,0.23 ± 0.68 % ID/g
same,Accumulation: Pancreas,[3]; 1 hour after injection,0.74 ± 0.25 % ID/g
same,Accumulation: Spleen,[3]; 1 hour after injection,3.05 ± 0.53 % ID/g
same,Accumulation: Stomach,[3]; 1 hour after injection,0.10 ± 0.04 % ID
same,Accumulation: Blood,[3]; 4 hours after injection,2.00 ± 0.29 % ID/g
same,Accumulation: Brain,[3]; 4 hours after injection,0.05 ± 0.00 % ID/g
same,Accumulation: Heart,[3]; 4 hours after injection,0.60 ± 0.08 % ID/g
same,Accumulation: Intestinal,[3]; 4 hours after injection,1.05 ± 0.10 % ID/g
same,Accumulation: Kidney,[3]; 4 hours after injection,22.7 ± 9.69 % ID/g
same,Accumulation: LNCaP tumor,[3]; 4 hours after injection,2.50 ± 0.50 % ID/g
same,Accumulation: Liver,[3]; 4 hours after injection,0.95 ± 0.05 % ID/g
same,Accumulation: Lung,[3]; 4 hours after injection,1.56 ± 0.07 % ID/g
same,Accumulation: Muscle,[3]; 4 hours after injection,0.21 ± 0.04 % ID/g
same,Accumulation: Pancreas,[3]; 4 hours after injection,0.54 ± 0.22 % ID/g
same,Accumulation: Spleen,[3]; 4 hours after injection,2.39 ± 0.05 % ID/g
same,Accumulation: Stomach,[3]; 4 hours after injection,0.13 ± 0.03 % ID
same,Accumulation: Blood,[3]; 24 hours after injection,0.68 ± 0.17 % ID/g
same,Accumulation: Brain,[3]; 24 hours after injection,0.07 ± 0.02 % ID/g
same,Accumulation: Heart,[3]; 24 hours after injection,0.43 ± 0.07 % ID/g
same,Accumulation: Intestinal,[3]; 24 hours after injection,1.00 ± 0.44 % ID/g
same,Accumulation: Kidney,[3]; 24 hours after injection,13.2 ± 2.41 % ID/g
same,Accumulation: LNCaP tumor,[3]; 24 hours after injection,2.09 ± 0.39 % ID/g
same,Accumulation: Liver,[3]; 24 hours after injection,1.55 ± 0.32 % ID/g
same,Accumulation: Lung,[3]; 24 hours after injection,0.97 ± 0.15 % ID/g
same,Accumulation: Muscle,[3]; 24 hours after injection,0.21 ± 0.07 % ID/g
same,Accumulation: Pancreas,[3]; 24 hours after injection,0.71 ± 0.10 % ID/g
same,Accumulation: Spleen,[3]; 24 hours after injection,3.37 ± 0.75 % ID/g
same,Accumulation: Stomach,[3]; 24 hours after injection,0.16 ± 0.05 % ID
same,Accumulation: Blood,[3]; 48 hours after injection,0.27 ± 0.16 % ID/g
same,Accumulation: Brain,[3]; 48 hours after injection,0.03 ± 0.02 % ID/g
same,Accumulation: Heart,[3]; 48 hours after injection,0.32 ± 0.05 % ID/g
same,Accumulation: Intestinal,[3]; 48 hours after injection,0.79 ± 0.21 % ID/g
same,Accumulation: Kidney,[3]; 48 hours after injection,8.58 ± 2.02 % ID/g
same,Accumulation: LNCaP tumor,[3]; 48 hours after injection,1.69 ± 0.77 % ID/g
same,Accumulation: Liver,[3]; 48 hours after injection,1.28 ± 0.16 % ID/g
same,Accumulation: Lung,[3]; 48 hours after injection,0.66 ± 0.24 % ID/g
same,Accumulation: Muscle,[3]; 48 hours after injection,0.15 ± 0.06 % ID/g
same,Accumulation: Pancreas,[3]; 48 hours after injection,0.71 ± 0.17 % ID/g
same,Accumulation: Spleen,[3]; 48 hours after injection,2.63 ± 0.83 % ID/g
same,Accumulation: Stomach,[3]; 48 hours after injection,0.07 ± 0.02 % ID
same,Accumulation: Blood,[3]; 96 hours after injection,0.14 ± 0.04 % ID/g
same,Accumulation: Brain,[3]; 96 hours after injection,0.09 ± 0.05 % ID/g
same,Accumulation: Heart,[3]; 96 hours after injection,0.40 ± 0.12 % ID/g
same,Accumulation: Intestinal,[3]; 96 hours after injection,0.41 ± 0.17 % ID/g
same,Accumulation: Kidney,[3]; 96 hours after injection,7.04 ± 3.28 % ID/g
same,Accumulation: LNCaP tumor,[3]; 96 hours after injection,1.05 ± 0.03 % ID/g
same,Accumulation: Liver,[3]; 96 hours after injection,1.59 ± 0.57 % ID/g
same,Accumulation: Lung,[3]; 96 hours after injection,0.70 ± 0.15 % ID/g
same,Accumulation: Muscle,[3]; 96 hours after injection,0.14 ± 0.08 % ID/g
same,Accumulation: Pancreas,[3]; 96 hours after injection,0.85 ± 0.39 % ID/g
same,Accumulation: Spleen,[3]; 96 hours after injection,2.82 ± 0.87 % ID/g
same,Accumulation: Stomach,[3]; 96 hours after injection,0.10 ± 0.03 % ID
same,Accumulation: Blood,[3]; 192 hours after injection,0.07 ± 0.03 % ID/g
same,Accumulation: Brain,[3]; 192 hours after injection,0.04 ± 0.00 % ID/g
same,Accumulation: Heart,[3]; 192 hours after injection,0.33 ± 0.01 % ID/g
same,Accumulation: Intestinal,[3]; 192 hours after injection,0.13 ± 0.02 % ID/g
same,Accumulation: Kidney,[3]; 192 hours after injection,3.47 ± 1.24 % ID/g
same,Accumulation: LNCaP tumor,[3]; 192 hours after injection,0.83 ± 0.11 % ID/g
same,Accumulation: Liver,[3]; 192 hours after injection,1.20 ± 0.09 % ID/g
same,Accumulation: Lung,[3]; 192 hours after injection,0.67 ± 0.05 % ID/g
same,Accumulation: Muscle,[3]; 192 hours after injection,0.14 ± 0.09 % ID/g
same,Accumulation: Pancreas,[3]; 192 hours after injection,1.04 ± 0.18 % ID/g
same,Accumulation: Spleen,[3]; 192 hours after injection,3.46 ± 0.32 % ID/g
same,Accumulation: Stomach,[3]; 192 hours after injection,0.05 ± 0.00 % ID
same,Tumor accumulation compared with [^111In]In-PSMA-DA1 (in words),[3]; LNCaP tumor,tumor accumulation lower than that of [^111In]In-PSMA-DA1
same,Tumor/kidney ratio compared with [^111In]In-PSMA-DA1 (in words),[3]; at any time point,lower tumor/kidney ratio
